Test results from US20190367516A1 (Bayer Pharma Aktiengesellschaft, priority 2015, published 2019).
Where two headings read alike, the source gives them in different places.

Experiments:
human M2 receptor [1] = biological target: T1, human M2 receptor (Homo sapiens, UniProt P08172); format: cell-based; settings: α >1 = positive cooperativity
T1 sequence (P08172 1-466): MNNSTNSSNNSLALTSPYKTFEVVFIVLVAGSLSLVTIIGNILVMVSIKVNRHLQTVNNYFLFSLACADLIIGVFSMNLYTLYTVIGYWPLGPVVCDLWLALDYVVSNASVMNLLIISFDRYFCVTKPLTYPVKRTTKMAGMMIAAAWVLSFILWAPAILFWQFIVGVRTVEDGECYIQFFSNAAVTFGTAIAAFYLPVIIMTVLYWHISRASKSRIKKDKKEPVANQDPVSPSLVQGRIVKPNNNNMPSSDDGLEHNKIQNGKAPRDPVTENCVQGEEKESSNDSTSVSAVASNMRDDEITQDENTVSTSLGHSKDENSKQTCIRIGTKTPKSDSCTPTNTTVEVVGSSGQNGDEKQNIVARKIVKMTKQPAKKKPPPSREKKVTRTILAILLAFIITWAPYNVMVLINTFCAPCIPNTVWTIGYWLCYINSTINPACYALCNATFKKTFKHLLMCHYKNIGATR

human M2 receptor [2] = biological target: T1, human M2 receptor
[3] = shift in the acetylcholine dose-response curve (Allosteric EC50 shift, GraphPad PRISM)
[4] = Receptor activity EC50, M2-GIRK1/4 activation test, acetylcholine at EC20, allosteric potency, in some cases mean values from two or more determinations
[5] = shift of acetylcholine dose-response curve (Allosteric EC50 shift)
[6] = Receptor activity EC50, allosteric potency at EC20 acetylcholine, M2-GIRK1/4 reporter cells, in some cases mean of two or more determinations
[7] = read-out: Efficiency, boosting of the acetylcholine effect at EC20 acetylcholine concentration, M2-GIRK1/4 reporter cells

SMILES | Cooperativity (alpha factor) (human M2 receptor [1]; [3]) | EC50 (human M2 receptor [2]; [4]) [nM] | Cooperativity (alpha factor) (human M2 receptor [1]; [5]) | EC50 (human M2 receptor [2]; [6]) [nM] | also measured
CC[C@@H](NC(=O)c1cn(-c2c(F)cccc2Cl)c2nc(N3C[C@@H](O)CC3=O)ccc2c1=O)C(F)(F)F [Example 307, 1-(2-Chloro-6-fluorophenyl)-7-[(4S)-4-hydroxy-2-oxopyrrolidin-1-yl]-4-oxo-N-[(2R)-1,1,1-trifluorobutan-2-yl]-1,4-dihydro-1,8-naphthyridine-3-carboxamide] | 36 | 14 |  |  | 
O=C(NC12CC(C1)C2)c1cn(-c2c(F)cc(F)cc2Cl)c2nc(N3C[C@@H](O)CC3=O)ccc2c1=O [Example 396, N-(Bicyclo[1.1.1]pent-1-yl)-1-(2-chloro-4,6-difluorophenyl)-7-[(4S)-4-hydroxy-2-oxopyrrolidin-1-yl]-4-oxo-1,4-dihydro-1,8-naphthyridine-3-carboxamide] |  |  | 29 | 17 | Emax (human M2 receptor [2]; [7]): 92%
CN(CCF)c1ccc2c(=O)c(C(=O)NC(C(F)(F)F)C(F)(F)F)cn(-c3ccc(F)cc3F)c2n1 [Example 111, 1-(2,4-Difluorophenyl)-7-[(2-fluoroethyl)(methyl)amino]-N-(1,1,1,3,3,3-hexafluoropropan-2-yl)-4-oxo-1,4-dihydro-1,8-naphthyridine-3-carboxamide] | 26 | 35 |  |  | 
CC[C@@H](NC(=O)c1cn(-c2c(F)cccc2Cl)c2nc(N3CC4CC4(O)C3)ccc2c1=O)C(F)(F)F (mixture of isomers) [Example 310, 1-(2-Chloro-6-fluorophenyl)-7-[1-hydroxy-3-azabicyclo[3.1.0]hex-3-yl]-4-oxo-N-[(2R)-1,1,1-trifluorobutan-2-yl]-1,4-dihydro-1,8-naphthyridine-3-carboxamide] | 21 | 14 |  |  | 
O=C(NC12CC3CC(CC(C3)C1)C2)c1cn(-c2ccc(F)cc2F)c2nc(N3CCC(O)(O)[C@H](F)C3)ccc2c1=O [Example 7, 1-(2,4-Difluorophenyl)-7-[(3R)-3-fluoro-4,4-dihydroxypiperidin-1-yl]-4-oxo-N-(tricyclo[3.3.1.1^3,7]dec-1-yl)-1,4-dihydro-1,8-naphthyridine-3-carboxamide] | 34 | 34 |  |  | 
O=C(NC12CC(C(F)(F)F)(C1)C2)c1cn(-c2c(F)cc(F)cc2F)c2nc(N3C[C@@H](O)CC3=O)ccc2c1=O [Example 372, 7-[(4S)-4-Hydroxy-2-oxopyrrolidin-1-yl]-4-oxo-N-[3-(trifluoromethyl)bicyclo[1.1.1]pent-1-yl]-1-(2,4,6-trifluorophenyl)-1,4-dihydro-1,8-naphthyridine-3-carboxamide] | 34 | 20 |  |  | 
C[C@H]1CN(c2ccc3c(=O)c(C(=O)N[C@@H](C4CC4)C(F)(F)F)cn(-c4c(F)cc(F)cc4F)c3n2)C(=O)N1 [Example 449, N-[(1 S)-1-Cyclopropyl-2,2,2-trifluoroethyl]-7-[(4S)-4-methyl-2-oxoimidazolidin-1-yl]-4-oxo-1-(2,4,6-trifluorophenyl)-1,4-dihydro-1,8-naphthyridine-3-carboxamide] |  |  | 34 | 15 | Emax (human M2 receptor [2]; [7]): 91%
CC(C)CC(NC(=O)c1cn(-c2ccc(F)cc2F)c2nc(N(C)CCF)ccc2c1=O)C(F)(F)F (racemic) [Example 107, rac-1-(2,4-Difluorophenyl)-7-[(2-fluoroethyl)(methyl)amino]-4-oxo-N-[1,1,1-trifluoro-4-methylpentan-2-yl]-1,4-dihydro-1,8-naphthyridine-3-carboxamide] | 14 | 57 |  |  | 
CC[C@H](NC(=O)c1cn(-c2c(F)cc(F)cc2F)c2nc(N3CC(O)C4(CC4)C3)ccc2c1=O)C(F)(F)F (single isomer, unassigned) [Example 621] |  |  | 44 | 10 | Efficiency (human M2 receptor [2]; boosting of the acetylcholine effect at EC20 acetylcholine concentration, M2-GIRK1/4 reporter cells): 100.0%
O=C(N[C@@H](C1CC1)C(F)(F)F)c1cn(-c2c(F)cc(F)cc2F)c2nc(N3CCC(CO)(CO)CC3)ccc2c1=O [Example 489, 7-[4,4-Bis(hydroxymethyl)piperidin-1-yl]-N-[(1S)-1-cyclopropyl-2,2,2-trifluoroethyl]-4-oxo-1-(2,4,6-trifluorophenyl)-1,4-dihydro-1,8-naphlthyridine-3-carboxamide] |  |  | 23 | 27 | Emax (human M2 receptor [2]; [7]): 100%
CC[C@@H](NC(=O)c1cn(-c2ccccc2F)c2nc(N3C[C@@H](O)CC3=O)ccc2c1=O)C(F)(F)F [Example 239, 1-(2-Fluorophenyl)-7-[(4S)-4-hydroxy-2-oxopyrrolidin-1-yl]-4-oxo-N-[(2R)-1,1,1-trifluorobutan-2-yl]-1,4-dihydro-1,8-naphthyridine-3-carboxamide] | 30 | 112 |  |  | Emax (human M2 receptor [2]; read-out: Efficiency): 99.3%
C[C@@H]1CN(c2ccc3c(=O)c(C(=O)NC(C)(C)CC(F)(F)F)cn(-c4c(F)cc(F)cc4F)c3n2)C(=O)N1 [Example 457, 7-[(4R)-4-Methyl-2-oxoimidazolidin-1-yl]-4-oxo-N-(4,4,4-trifluoro-2-methylbutan-2-yl)-1-(2,4,6-trifluorophenyl)-1,4-dihydro-1,8-naphthyridine-3-carboxamide] |  |  | 36 | 4 | Emax (human M2 receptor [2]; [7]): 82%

Now from value to compound, other results behind:

Cooperativity (alpha factor) (human M2 receptor [1]; [3]) | EC50 (human M2 receptor [2]; [4]) [nM] | Cooperativity (alpha factor) (human M2 receptor [1]; [5]) | EC50 (human M2 receptor [2]; [6]) [nM] | SMILES | also measured
 |  | 23 | 49 | O=C(Nc1c(Cl)cccc1Cl)c1cn(-c2ccc(F)cc2F)c2nc(N3C[C@@H](O)[C@H](O)C3)ccc2c1=O [Example 631, N-(2,6-Dichlorophenyl)-1-(2,4-difluorophenyl)-7-[(3R,4R)-3,4-dihydroxypyrrolidin-1-yl]-4-oxo-1,4-dihydro-1,8-naphthyridine-3-carboxamide] | Emax (human M2 receptor [2]; [7]): 86%
27 | 101 |  |  | O=C(NC(c1c(F)cccc1F)C(F)(F)F)c1cn(-c2ccc(F)cc2F)c2nc(N3CCCC(O)C3=O)ccc2c1=O (single isomer, unassigned) [Example 250, 1-(2,4-Difluorophenyl)-N-[1-(2,6-difluorophenyl)-2,2,2-trifluoroethyl]-7-[3-hydroxy-2-oxopiperidin-1-yl]-4-oxo-1,4-dihydro-1,8-naphthyridine-3-carboxamide] | 
 |  | 35 | 20 | O=C(NC(CC(F)(F)F)C1CC1)c1cn(-c2c(F)cc(F)cc2F)c2nc(N3C[C@@H](O)[C@H](O)C3)ccc2c1=O (single isomer, unassigned) [Example 439] | Emax (human M2 receptor [2]; [7]): 100%
28 | 75 |  |  | CCC(COC(F)(F)F)NC(=O)c1cn(-c2ccc(F)cc2F)c2nc(N3C[C@@H](O)CC3=O)ccc2c1=O (stereo partly drawn) [Example 234, 1-(2,4-Difluorophenyl)-7-[(4S)-4-hydroxy-2-oxopyrrolidin-1-yl]-4-oxo-N-[1-(trifluoromethoxy)butan-2-yl]-1,4-dihydro-1,8-naphthyridine-3-carboxamide] | 
7 | 82 |  |  | CN(C)c1ccc2c(=O)c(C(=O)Nc3ccccc3C(F)(F)F)cn(-c3ccc(F)cc3F)c2n1 [Example 57, 1-(2,4-Difluorophenyl)-7-(dimethylamino)-4-oxo-N-[2-(trifluoromethyl)phenyl]-1,4-dihydro-1,8-naphthyridine-3-carboxamide] | 
28 | 24 |  |  | CC[C@@H](NC(=O)c1cn(-c2ccc(F)cc2F)c2nc(N3CC4CC4(O)C3)ccc2c1=O)C(F)(F)F (mixture of isomers) [Example 267, 1-(2,4-Difluorophenyl)-7-[1-hydroxy-3-azabicyclo[3.1.0]hex-3-yl]-4-oxo-N-[(2R)-1,1,1-trifluorobutan-2-yl]-1,4-dihydro-1,8-naphthyridine-3-carboxamide] | 
24 | 106 |  |  | CC[C@@H](NC(=O)c1cn(-c2ccc(F)cc2F)c2nc(N3CC4CNC(=O)C4C3)ccc2c1=O)C(F)(F)F (mixture of isomers) [Example 221, 1-(2,4-Difluorophenyl)-4-oxo-7-[4-oxohexahydrpyrrolo[3,4-c]pyrrol-2(1H)-yl]-N-[(2R)-1,1,1-trifluorobutan-2-yl]-1,4-dihydro-1,8-naphthyridine-3-carboxamide] | 
5 | 138 |  |  | CCC(NC(=O)c1cn(-c2ccc(F)cc2F)c2nc(N3CCCC3=O)ccc2c1=O)C(F)(F)F (stereo not shown) [Example 177] | 
29 | 76 |  |  | O=C(NC(C(F)(F)F)C(F)(F)F)c1cn(-c2ccc(F)cc2F)c2nc(N3CC[C@H](F)C3)ccc2c1=O [Example 70, 1-(2,4-Difluorophenyl)-7-[(3S)-3-fluoropyrrolidin-1-yl]-N-(1,1,1,3,3,3-hexafluoropropan-2-yl)-4-oxo-1,4-dihydro-1,8-naphthyridine-3-carboxamide] | 
28 | 12 |  |  | CC[C@H](NC(=O)c1cn(-c2ccc(F)cc2F)c2nc(N3CC[C@H](F)C3)ccc2c1=O)C(F)(F)F [Example 64, 1-(2,4-Difluorophenyl)-7-[(3S)-3-fluoropyrrolidin-1-yl]-4-oxo-N-[(2S)-1,1,1-trifluorobutan-2-yl]-1,4-dihydro-1,8-naphthyridine-3-carboxamide] | 
